# Assay results published in ChEMBL document CHEMBL1201862, “PubChem BioAssay data set” (2004).
# Calls of active or inactive are those of the source.
# Columns and labels:
# [1] = target: T1, Adenosylmethionine-8-amino-7-oxononanoate aminotransferase (Mycobacterium tuberculosis, UniProt P9WQ81); test: Mycobacterium tuberculosis BioA enzyme inhibitor Measured in Biochemical System Using Plate Reader - 2163-02_Inhibitor_Dose_CherryPick_Activity.; type: functional, Mycobacterium tuberculosis UT205
# T1 sequence (P9WQ81 whole entry): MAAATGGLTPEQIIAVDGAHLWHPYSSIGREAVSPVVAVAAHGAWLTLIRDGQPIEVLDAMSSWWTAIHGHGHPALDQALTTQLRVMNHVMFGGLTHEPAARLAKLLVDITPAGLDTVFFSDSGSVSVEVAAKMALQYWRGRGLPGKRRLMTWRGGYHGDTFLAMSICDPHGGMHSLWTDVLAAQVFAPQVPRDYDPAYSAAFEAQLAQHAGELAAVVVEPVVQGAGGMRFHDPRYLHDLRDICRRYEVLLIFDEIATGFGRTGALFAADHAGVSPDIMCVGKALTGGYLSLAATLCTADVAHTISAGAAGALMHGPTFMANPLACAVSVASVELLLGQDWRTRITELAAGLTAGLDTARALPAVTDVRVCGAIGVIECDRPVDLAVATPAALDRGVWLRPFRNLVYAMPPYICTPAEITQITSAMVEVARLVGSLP
# cells [2] = test: cells
# Major prion protein = Major prion protein (Homo sapiens, UniProt P04156); type: functional, cell-based
# Protein skinhead-1 = target: T2, Protein skinhead-1 (Caenorhabditis elegans, UniProt P34707); type: functional
# T2 sequence (P34707 whole entry): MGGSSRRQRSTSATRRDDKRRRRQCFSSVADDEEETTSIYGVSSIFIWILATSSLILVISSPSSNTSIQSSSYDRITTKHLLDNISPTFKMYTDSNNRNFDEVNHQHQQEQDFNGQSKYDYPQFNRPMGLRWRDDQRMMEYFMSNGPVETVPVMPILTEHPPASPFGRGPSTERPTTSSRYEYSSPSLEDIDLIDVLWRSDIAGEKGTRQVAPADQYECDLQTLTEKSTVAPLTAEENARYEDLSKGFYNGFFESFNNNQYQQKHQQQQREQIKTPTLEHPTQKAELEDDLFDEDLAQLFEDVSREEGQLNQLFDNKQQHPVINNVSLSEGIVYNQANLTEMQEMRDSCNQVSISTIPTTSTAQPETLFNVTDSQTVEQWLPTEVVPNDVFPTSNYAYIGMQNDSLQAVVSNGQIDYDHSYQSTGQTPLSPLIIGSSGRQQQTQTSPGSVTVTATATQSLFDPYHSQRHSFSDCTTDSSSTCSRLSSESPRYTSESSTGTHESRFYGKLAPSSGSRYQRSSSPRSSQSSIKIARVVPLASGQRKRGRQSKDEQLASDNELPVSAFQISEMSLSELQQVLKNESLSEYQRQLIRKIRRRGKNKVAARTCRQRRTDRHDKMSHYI
# [3] = Luminescence Cell-Based Dose Confirmation HTS to Identify Inhibitors of Platelet Dense Granule Release. [Related pubchem assays: 1663 (Primary HTS), 1678 (Summary of Project)]; type: functional
# [4] = target: Luciferin 4-monooxygenase (Photinus pyralis, UniProt P08659); test: inhibition of purified Photinus pyralis luciferase – biochemical, luminescence, dose response (AID 1891)
# Prothrombin = Prothrombin (Homo sapiens, UniProt P00734); test: Thrombin 1536 HTS Dose Response Confirmation. [Related pubchem assays: 1046 (Thrombin 1536 HTS; hits were confirmed in this assay)]; type: functional
# Genome polyprotein = Genome polyprotein (dengue virus type 2, UniProt P29990); test: flavivirus cap methylation enzyme inhibition – biochemical, confirmation dose response, primary screen (AID 588689); type: functional
# [5] = target: T3, Long-chain-fatty-acid--AMP ligase FadD28 (Mycobacterium tuberculosis, UniProt P9WQ59); test: Fluorescence polarization aasay to screen for inhibitors that compete for the binding of FadD28 to a bisubstrate Measured in Biochemical System Using Plate Reader - 2147-01_Inhibitor_Dose_CherryPick_Activity.; type: functional, Mycobacterium tuberculosis H37Rv
# T3 sequence (P9WQ59 whole entry): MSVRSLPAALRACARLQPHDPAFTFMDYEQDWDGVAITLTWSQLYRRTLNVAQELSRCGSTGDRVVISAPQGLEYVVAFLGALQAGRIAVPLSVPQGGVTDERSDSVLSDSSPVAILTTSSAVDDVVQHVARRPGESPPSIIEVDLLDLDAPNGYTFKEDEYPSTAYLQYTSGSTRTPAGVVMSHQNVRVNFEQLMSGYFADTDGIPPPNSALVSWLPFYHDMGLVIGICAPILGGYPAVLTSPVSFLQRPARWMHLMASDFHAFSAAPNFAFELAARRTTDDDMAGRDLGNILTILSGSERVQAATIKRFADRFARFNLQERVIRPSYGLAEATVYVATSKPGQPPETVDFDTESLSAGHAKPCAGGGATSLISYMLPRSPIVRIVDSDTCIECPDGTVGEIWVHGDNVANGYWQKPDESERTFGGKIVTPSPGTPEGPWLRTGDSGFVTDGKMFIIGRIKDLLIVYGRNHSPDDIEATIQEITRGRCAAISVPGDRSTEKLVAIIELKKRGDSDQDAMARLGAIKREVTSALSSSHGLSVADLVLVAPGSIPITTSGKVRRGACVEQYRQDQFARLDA
# [6] = Trypanosoma cruzi growth suppression in host cells – NIH3T3 host cells, beta-gal luminescence, confirmation (AID 2044); type: functional, cell-based;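 note: intracellular parasites grown in NIH/3T3 mouse fibroblasts as host cells; luminescent beta-galactosidase reporter signal from transgenic T. cruzi replicating inside host cells; inhibitors lower the luminescence signal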
# [7] = NIH3T3 cell viability loss – ATP luminescence, mouse fibroblasts, counter-screen, dose response (AID 2010); type: functional, cell-based;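 note: cells exposed to compound for about 90 hours before reading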
# SUMO-activating enzyme = SUMO-activating enzyme (Homo sapiens, UniProt Q9UBT2); test: blockers of UBC9-mediated SUMO conjugation – biochemical, AlphaScreen, SUMOylation inhibitor project, confirmation (AID 2018); type: functional
# [8] = target: T4, Calpain-2 catalytic subunit (Sus scrofa, UniProt P43367); test: m-calpain protease blockers, concentration series – biochemical, fluorogenic peptide substrate, dose response (AID 1420); type: functional
# T4 sequence (P43367 whole entry): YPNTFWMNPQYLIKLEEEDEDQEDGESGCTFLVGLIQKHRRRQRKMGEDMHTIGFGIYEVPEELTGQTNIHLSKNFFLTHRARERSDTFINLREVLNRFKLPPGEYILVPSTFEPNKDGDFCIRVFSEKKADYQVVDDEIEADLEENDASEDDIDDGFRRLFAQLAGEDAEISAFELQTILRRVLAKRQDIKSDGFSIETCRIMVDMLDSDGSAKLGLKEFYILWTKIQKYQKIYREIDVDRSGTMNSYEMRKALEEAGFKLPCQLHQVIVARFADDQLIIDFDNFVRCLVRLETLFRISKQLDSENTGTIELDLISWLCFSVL
# [9] = HepG2 cell cytotoxicity, dose response, cytotoxicity control for non-replicating M. tuberculosis project (AID 489018); type: functional; conditions: Mycobacterium tuberculosis
# INS1 = test: INS-1E survival protection against cytokine death – cell-based, luminescence, retest, dose response (AID 449756); type: functional; conditions: Rattus norvegicus;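 note: cell death triggered by IL-1 beta plus TNF-alpha plus IFN-gamma mixture; protective hits raise ATP signal compared with cytokine alone wells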
# BJ [10] = test: BJ-TERT fibroblast viability loss – cell-based, RAS-independent, luminescence, dose response (AID 1933); type: functional; conditions: Homo sapiens
# cells [11] = type: functional
# BJ [12] = test: cells; type: functional, cell-based; conditions: Homo sapiens
# BJ [13] = test: BJ-TERT-LT-ST fibroblast viability loss – cell-based, RAS-independent, luminescence, dose response (AID 1935); type: functional; conditions: Homo sapiens;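 note: BJ fibroblasts immortalized with TERT plus LT and ST oncogenes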
# cells [14] = type: functional, cell-based
# [15] = THP-1 cell cytotoxicity, dose response, cytotoxicity control for non-replicating M. tuberculosis project (AID 489025); type: functional
# [16] = DRD fibroblast viability loss – cell-based, non-viral oncogenic, luminescence, dose response (AID 1934); type: functional; conditions: Homo sapiens
# [17] = Vero E6 cell cytotoxicity, dose response, cytotoxicity control for non-replicating M. tuberculosis project, secondary assay (AID 492998); type: functional, VeroE6; conditions: Vero C1008
# cells [18] = type: functional, cell-based; remark: listed apart in the source
smiles,measurement,setting,value
Cc1cc(C)n(-c2ccc(C(=O)Nc3ccc4c(c3)OCO4)cc2)n1,AC50,[1],4.31 µM (active)
Cc1nn(C)cc1CN(C)C(=O)c1cc(-c2ccccc2)nc2ccc(Br)cc12,IC50,cells [2],75.1 µM (inactive)
same,IC50,Major prion protein,6.12 µM (active)
O=C(NC(=S)NCCO)c1sc2ccccc2c1Cl,IC50,cells [2],> 138 µM (inactive)
same,IC50,Major prion protein,3.4 µM (active)
Cn1c(-c2ccc(Br)o2)nc2cc(Br)ccc21,IC50,Protein skinhead-1,> 100 µM (inactive)
O=C(Nc1ncc2c(n1)CC(c1ccco1)CC2=O)c1ccco1 (stereo not given),EC50,[3],> 112 µM (not active)
same,EC50,[4],> 112 µM (not active)
same,AC50,[1],6.29 µM (active)
CCOC(=O)N1CCN(C(=O)CSCC(=O)Nc2nc(-c3ccc(Cl)s3)cs2)CC1,IC50,Prothrombin,1.95 µM (active)
COc1cc(C(C2C(=O)CC(C)(C)CC2=O)C2C(=O)CC(C)(C)CC2=O)ccc1O,IC50,Genome polyprotein,62.3 µM (active)
Cc1ccc(-n2nc3c(=S)[nH]nc(C)c3c2C)cc1,IC50,Major prion protein,0.143 µM (active)
Cc1ccc(-n2nc3c(S)nnc(C)c3c2C)cc1,IC50,cells [2],> 138 µM (inactive)
COC(=O)c1cc(NC(=O)CN(c2ccc3c(c2)OCO3)S(C)(=O)=O)ccc1Cl,IC50,Protein skinhead-1,> 100 µM (inactive)
COc1ccccc1-n1c(C)c(C(=O)O)c2cc(OC)c3ccccc3c21,AC50,[5],60.9 µM (active)
COC(=O)c1n[nH]c(NC(=O)C(C)(C)C)n1,IC50,Prothrombin,1.43 µM (active)
O=C(COC(=O)c1cccc(S(=O)(=O)N2CCCCCC2)c1)Nc1ccccc1,AC50,[5],> 100 µM (inactive)
COc1ccc(C(=O)Nc2ccc(Cn3ccnc3)cc2)cc1OC,AC50,[1],7.74 µM (active)
COC(=O)c1c(NC(=O)CN2CCN(Cc3ccc4c(c3)OCO4)CC2)sc(C)c1C,EC50,[6],1.88 µM (active)
same,IC50,Protein skinhead-1,> 100 µM (inactive)
same,EC50,[7],> 60 µM (not active)
Clc1ccc(Cn2nnc(-c3ccccc3)n2)cc1,IC50,Protein skinhead-1,12.6 µM (active)
O=c1[nH]c(=O)n(Cc2ccccc2)c2c1C(C(F)(F)F)(C(F)(F)F)N=C(c1ccco1)N2,IC50,Prothrombin,31.5 µM (active)
Cc1ccc(/C=C(\CCC(=O)O)c2nc3ccccc3s2)cc1[N+](=O)[O-],AC50,[1],0.153 µM (active)
CCc1c(C(=O)NCCc2ccc(OC)c(OC)c2)[nH]c(C)c1C(C)=O,AC50,[1],3.74 µM (active)
O=C1/C(=C/c2coc3ccc(O)cc3c2=O)SC(=S)N1c1ccccc1,IC50,SUMO-activating enzyme,39.4 µM (active)
Cc1cc(NC(=O)CSc2nc3cc(C(=O)NCCCOC(C)C)ccc3c(=O)n2Cc2ccco2)no1,IC50,[8],16.1 µM (not active)
same,IC50,SUMO-activating enzyme,38.3 µM (active)
Cc1cc(NC(=O)COc2ccc3ccccc3c2Br)no1,IC50,cells [2],133 µM (inactive)
same,IC50,Major prion protein,1.39 µM (active)
Cc1nn(-c2ncc(C(F)(F)F)cc2Cl)c(=O)n1-c1ccccc1,IC50,Protein skinhead-1,> 100 µM (inactive)
N#C/C(=C\c1ccccc1)C(=O)NNS(=O)(=O)c1cccc([N+](=O)[O-])c1,IC50,Genome polyprotein,51.8 µM (active)
C=CCOc1ccc(C(c2c(O)nc(SC)nc2O)c2c(O)nc(SC)nc2O)cc1,IC50,Genome polyprotein,33.3 µM (active)
O=[N+]([O-])c1cccnc1N/N=C/c1ccccc1O,CC50,[9],14.4 µM (active)
same,AC50,INS1,0.691 µM (active)
same,EC50,BJ [10],9.77 µM (active)
same,IC50,cells [11],3.92 µM (active)
same,EC50,BJ [12],10.9 µM (active)
same,EC50,BJ [13],21.6 µM (active)
same,EC50,cells [14],6.41 µM (active)
same,CC50,[15],0.766 µM (active)
same,EC50,[16],8.92 µM (active)
same,CC50,[17],3.08 µM (active)
same,EC50,cells [18],> 350 µM (not active)
Cc1ccc(NC(C)C(=O)N/N=C/c2ccc([N+](=O)[O-])s2)cc1 (stereo not given),EC50,[6],0.494 µM (active)
same,IC50,cells [11],7.04 µM (active)
same,EC50,[7],> 60 µM (not active)
same,CC50,[15],25.9 µM (active)
same,CC50,[17],15.8 µM (active)
Cc1ccc(OCC(=O)N/N=C\c2c(C)n(C)c3ccccc23)c([N+](=O)[O-])c1,AC50,[5],68 µM (active)
